Experimental data from patent US9518018B2, “3-alkoxy, thioalkyl and amino-4-amino-6-(substituted)picolinates and their use as herbicides” (Dow AgroSciences LLC, priority 2011, dated 2016).

Tested on: desired test plant species
Assay: Foliar-applied postemergence herbicidal activity in direct seeded rice (Table 6)
Format: in vivo
Conditions: 21 DAA
Description: Seeds or nutlets of the desired test plant species were planted in a soil matrix prepared by mixing a loam soil (43 percent silt, 19 percent clay, and 38 percent sand, with a pH of about 8.1 and an organic matter content of about 1.5 percent) and river sand in an 80 to 20 ratio. The soil matrix was contained in plastic pots with a surface area of 139.7 cm^2. When required to ensure good germination and healthy plants, a fungicide treatment and/or other chemical or physical treatment was applied. The plants were grown for 10-17 d in a greenhouse with an approximate 14-h photoperiod which was maintained at about 29° C. during the day and 26° C. during the night. Nutrients and water were added on a regular basis and supplemental lighting was provided with overhead metal halide 1000-Watt lamps as necessary. The plants were employed for testing when they reached the second or third true leaf stage. Treatments consisted of compounds 45, 34, and 66. Weighed amounts of technical compounds were placed in individual 25 mL glass vials and dissolved in 8 mL of 97:3 v/v acetone-DMSO to obtain stock solutions. […] The spray application solutions were prepared by removing 4 mL of the stock solution and diluting with 4 mL of 97:3 v/v acetone-DMSO and continued serial dilution to obtain 1⁄2×, 1⁄4×, 1⁄8×, and 1/16× rates of the high rate. Spray solutions were diluted to the appropriate final concentrations with the addition of 8 mL of an aqueous mixture of 1.875% (v/v) Agri-dex crop oil concentrate. The final 12-mL spray solutions each contained 1.25% (v/v) Agri-dex crop oil concentrate, 32.3% acetone, and 1.0% DMSO. Compound requirements are based upon a 12 mL application volume at a rate of 187 L/ha. Spray solutions were applied to the plant material with an overhead Mandel track sprayer equipped with […] nozzles calibrated to deliver 187 L/ha over an application area of 0.503 square meters (m^2) at a spray height of 18 inches ([…]) above average plant canopy height. Control plants were sprayed in the same manner with the solvent blank. The treated plants and control plants were placed in a greenhouse as described above and watered by sub-irrigation to prevent wash-off of the test compounds. After approximately 3 weeks, the condition of the test plants, compared with that of the untreated plants, was determined visually and scored on a scale of 0 to 100 percent where 0 corresponds to no injury and 100 corresponds to complete kill. By applying the well-accepted probit analysis as described by J. Berkson in Journal of the […], 48, 565 (1953) and by D. Finney in “Probit Analysis” Cambridge University Press (1952) or by plotting the mean data and fitting a logarithmic curve to the portion of the data where there was a dose response using Microsoft Excel®, the above data can be used to calculate GR50 and GR90 values, which are defined as growth reduction factors that correspond to the effective dose of herbicide required to kill or control 50 percent or 90 percent, respectively, of a target plant.

COc1c(C(=O)O)nc(-c2ccc(Cl)c(OC)c2F)c(F)c1N [Compound 45, 4-amino-6-(4-chloro-2-fluoro-3-methoxyphenyl)-5-fluoro-3-methoxypicolinic acid]
Mean Visual Injury (%)-21 Days After Application AESSE (AESSE (Aeschynomene sensitiva, sensitive jointvetch), 4.38 g ae/ha): 100% | Mean Visual Injury (%)-21 Days After Application AESSE (AESSE (Aeschynomene sensitiva, sensitive jointvetch), 8.75 g ae/ha): 100% | Mean Visual Injury (%)-21 Days After Application AESSE (AESSE (Aeschynomene sensitiva, sensitive jointvetch), 17.5 g ae/ha): 100% | Mean Visual Injury (%)-21 Days After Application AESSE (AESSE (Aeschynomene sensitiva, sensitive jointvetch), 35 g ae/ha): 100% | Mean Visual Injury (%)-21 Days After Application AESSE (AESSE (Aeschynomene sensitiva, sensitive jointvetch), 70 g ae/ha): 100% | GR50 AESSE (AESSE (Aeschynomene sensitiva, sensitive jointvetch), dose to kill or control 50 percent): <4.38 g ae/ha | GR90 AESSE (AESSE (Aeschynomene sensitiva, sensitive jointvetch), dose to kill or control 90 percent): <4.38 g ae/ha | Mean Visual Injury (%)-21 Days After Application BRAPP (BRAPP (Brachiaria platyphylla, broadleaf signalgrass), 4.38 g ae/ha): 72% | Mean Visual Injury (%)-21 Days After Application BRAPP (BRAPP (Brachiaria platyphylla, broadleaf signalgrass), 8.75 g ae/ha): 80% | Mean Visual Injury (%)-21 Days After Application BRAPP (BRAPP (Brachiaria platyphylla, broadleaf signalgrass), 17.5 g ae/ha): 95% | Mean Visual Injury (%)-21 Days After Application BRAPP (BRAPP (Brachiaria platyphylla, broadleaf signalgrass), 35 g ae/ha): 95% | Mean Visual Injury (%)-21 Days After Application BRAPP (BRAPP (Brachiaria platyphylla, broadleaf signalgrass), 70 g ae/ha): 98% | GR50 BRAPP (BRAPP (Brachiaria platyphylla, broadleaf signalgrass), dose to kill or control 50 percent): <4.38 g ae/ha | GR90 BRAPP (BRAPP (Brachiaria platyphylla, broadleaf signalgrass), dose to kill or control 90 percent): 22.0 g ae/ha | Mean Visual Injury (%)-21 Days After Application CYPDI (CYPDI (Cyperus difformis, small-flower flatsedge), 4.38 g ae/ha): 75% | Mean Visual Injury (%)-21 Days After Application CYPDI (CYPDI (Cyperus difformis, small-flower flatsedge), 8.75 g ae/ha): 97% | Mean Visual Injury (%)-21 Days After Application CYPDI (CYPDI (Cyperus difformis, small-flower flatsedge), 17.5 g ae/ha): 98% | Mean Visual Injury (%)-21 Days After Application CYPDI (CYPDI (Cyperus difformis, small-flower flatsedge), 35 g ae/ha): 100% | Mean Visual Injury (%)-21 Days After Application CYPDI (CYPDI (Cyperus difformis, small-flower flatsedge), 70 g ae/ha): 100% | GR50 CYPDI (CYPDI (Cyperus difformis, small-flower flatsedge), dose to kill or control 50 percent): <4.38 g ae/ha | GR90 CYPDI (CYPDI (Cyperus difformis, small-flower flatsedge), dose to kill or control 90 percent): 8.8 g ae/ha | Mean Visual Injury (%)-21 Days After Application CYPES (CYPES (Cyperus esculentus, yellow nutsedge), 4.38 g ae/ha): 73% | Mean Visual Injury (%)-21 Days After Application CYPES (CYPES (Cyperus esculentus, yellow nutsedge), 8.75 g ae/ha): 78% | Mean Visual Injury (%)-21 Days After Application CYPES (CYPES (Cyperus esculentus, yellow nutsedge), 17.5 g ae/ha): 85% | Mean Visual Injury (%)-21 Days After Application CYPES (CYPES (Cyperus esculentus, yellow nutsedge), 35 g ae/ha): 99% | Mean Visual Injury (%)-21 Days After Application CYPES (CYPES (Cyperus esculentus, yellow nutsedge), 70 g ae/ha): 95% | GR50 CYPES (CYPES (Cyperus esculentus, yellow nutsedge), dose to kill or control 50 percent): <4.38 g ae/ha | GR90 CYPES (CYPES (Cyperus esculentus, yellow nutsedge), dose to kill or control 90 percent): 27.1 g ae/ha | Mean Visual Injury (%)-21 Days After Application CYPIR (CYPIR (Cyperus iria, rice flatsedge), 4.38 g ae/ha): 95% | Mean Visual Injury (%)-21 Days After Application CYPIR (CYPIR (Cyperus iria, rice flatsedge), 8.75 g ae/ha): 97% | Mean Visual Injury (%)-21 Days After Application CYPIR (CYPIR (Cyperus iria, rice flatsedge), 17.5 g ae/ha): 100% | Mean Visual Injury (%)-21 Days After Application CYPIR (CYPIR (Cyperus iria, rice flatsedge), 35 g ae/ha): 100% | Mean Visual Injury (%)-21 Days After Application CYPIR (CYPIR (Cyperus iria, rice flatsedge), 70 g ae/ha): 100% | GR50 CYPIR (CYPIR (Cyperus iria, rice flatsedge), dose to kill or control 50 percent): <4.38 g ae/ha | GR90 CYPIR (CYPIR (Cyperus iria, rice flatsedge), dose to kill or control 90 percent): <4.38 g ae/ha | Mean Visual Injury (%)-21 Days After Application ECHCG (ECHCG (Echinochloa crus-galli, barnyardgrass), 4.38 g ae/ha): 92% | Mean Visual Injury (%)-21 Days After Application ECHCG (ECHCG (Echinochloa crus-galli, barnyardgrass), 8.75 g ae/ha): 92% | Mean Visual Injury (%)-21 Days After Application ECHCG (ECHCG (Echinochloa crus-galli, barnyardgrass), 17.5 g ae/ha): 95% | Mean Visual Injury (%)-21 Days After Application ECHCG (ECHCG (Echinochloa crus-galli, barnyardgrass), 35 g ae/ha): 98% | Mean Visual Injury (%)-21 Days After Application ECHCG (ECHCG (Echinochloa crus-galli, barnyardgrass), 70 g ae/ha): 100% | GR50 ECHCG (ECHCG (Echinochloa crus-galli, barnyardgrass), dose to kill or control 50 percent): <4.38 g ae/ha | GR90 ECHCG (ECHCG (Echinochloa crus-galli, barnyardgrass), dose to kill or control 90 percent): <4.38 g ae/ha | Mean Visual Injury (%)-21 Days After Application ECHCO (ECHCO (Echinochloa colonum, junglerice), 4.38 g ae/ha): 80% | Mean Visual Injury (%)-21 Days After Application ECHCO (ECHCO (Echinochloa colonum, junglerice), 8.75 g ae/ha): 88% | Mean Visual Injury (%)-21 Days After Application ECHCO (ECHCO (Echinochloa colonum, junglerice), 17.5 g ae/ha): 95% | Mean Visual Injury (%)-21 Days After Application ECHCO (ECHCO (Echinochloa colonum, junglerice), 35 g ae/ha): 98% | Mean Visual Injury (%)-21 Days After Application ECHCO (ECHCO (Echinochloa colonum, junglerice), 70 g ae/ha): 100% | GR50 ECHCO (ECHCO (Echinochloa colonum, junglerice), dose to kill or control 50 percent): <4.38 g ae/ha | GR90 ECHCO (ECHCO (Echinochloa colonum, junglerice), dose to kill or control 90 percent): 12.9 g ae/ha | Mean Visual Injury (%)-21 Days After Application LEFCH (LEFCH (Leptochloa chinensis, Chinese sprangletop), 4.38 g ae/ha): 3% | Mean Visual Injury (%)-21 Days After Application LEFCH (LEFCH (Leptochloa chinensis, Chinese sprangletop), 8.75 g ae/ha): 0% | Mean Visual Injury (%)-21 Days After Application LEFCH (LEFCH (Leptochloa chinensis, Chinese sprangletop), 17.5 g ae/ha): 20% | Mean Visual Injury (%)-21 Days After Application LEFCH (LEFCH (Leptochloa chinensis, Chinese sprangletop), 35 g ae/ha): 42% | Mean Visual Injury (%)-21 Days After Application LEFCH (LEFCH (Leptochloa chinensis, Chinese sprangletop), 70 g ae/ha): 60% | GR50 LEFCH (LEFCH (Leptochloa chinensis, Chinese sprangletop), dose to kill or control 50 percent): 53.5 g ae/ha | GR90 LEFCH (LEFCH (Leptochloa chinensis, Chinese sprangletop), dose to kill or control 90 percent): >70 g ae/ha | Mean Visual Injury (%)-21 Days After Application ORYSA ‘Clearfield 171’ (ORYSA (Oryza sativa ‘Clearfield 171’, rice), 4.38 g ae/ha): 0% | Mean Visual Injury (%)-21 Days After Application ORYSA ‘Clearfield 171’ (ORYSA (Oryza sativa ‘Clearfield 171’, rice), 8.75 g ae/ha): 12% | Mean Visual Injury (%)-21 Days After Application ORYSA ‘Clearfield 171’ (ORYSA (Oryza sativa ‘Clearfield 171’, rice), 17.5 g ae/ha): 15% | Mean Visual Injury (%)-21 Days After Application ORYSA ‘Clearfield 171’ (ORYSA (Oryza sativa ‘Clearfield 171’, rice), 35 g ae/ha): 35% | Mean Visual Injury (%)-21 Days After Application ORYSA ‘Clearfield 171’ (ORYSA (Oryza sativa ‘Clearfield 171’, rice), 70 g ae/ha): 47% | GR50 ORYSA ‘Clearfield 171’ (ORYSA (Oryza sativa ‘Clearfield 171’, rice), dose to kill or control 50 percent): >70 g ae/ha | GR90 ORYSA ‘Clearfield 171’ (ORYSA (Oryza sativa ‘Clearfield 171’, rice), dose to kill or control 90 percent): >70 g ae/ha | Mean Visual Injury (%)-21 Days After Application ORYSA ‘Wells’ (ORYSA (Oryza sativa ‘Wells’, rice), 4.38 g ae/ha): 0% | Mean Visual Injury (%)-21 Days After Application ORYSA ‘Wells’ (ORYSA (Oryza sativa ‘Wells’, rice), 8.75 g ae/ha): 0% | Mean Visual Injury (%)-21 Days After Application ORYSA ‘Wells’ (ORYSA (Oryza sativa ‘Wells’, rice), 17.5 g ae/ha): 0% | Mean Visual Injury (%)-21 Days After Application ORYSA ‘Wells’ (ORYSA (Oryza sativa ‘Wells’, rice), 35 g ae/ha): 10% | Mean Visual Injury (%)-21 Days After Application ORYSA ‘Wells’ (ORYSA (Oryza sativa ‘Wells’, rice), 70 g ae/ha): 23% | GR50 ORYSA ‘Wells’ (ORYSA (Oryza sativa ‘Wells’, rice), dose to kill or control 50 percent): >70 g ae/ha | GR90 ORYSA ‘Wells’ (ORYSA (Oryza sativa ‘Wells’, rice), dose to kill or control 90 percent): >70 g ae/ha | Mean Visual Injury (%)-21 Days After Application SCPJU (SCPJU (Scirpus juncoides, Japanese bulrush), 4.38 g ae/ha): 72% | Mean Visual Injury (%)-21 Days After Application SCPJU (SCPJU (Scirpus juncoides, Japanese bulrush), 8.75 g ae/ha): 100% | Mean Visual Injury (%)-21 Days After Application SCPJU (SCPJU (Scirpus juncoides, Japanese bulrush), 17.5 g ae/ha): 100% | Mean Visual Injury (%)-21 Days After Application SCPJU (SCPJU (Scirpus juncoides, Japanese bulrush), 35 g ae/ha): 100% | Mean Visual Injury (%)-21 Days After Application SCPJU (SCPJU (Scirpus juncoides, Japanese bulrush), 70 g ae/ha): 100% | GR50 SCPJU (SCPJU (Scirpus juncoides, Japanese bulrush), dose to kill or control 50 percent): <4.38 g ae/ha | GR90 SCPJU (SCPJU (Scirpus juncoides, Japanese bulrush), dose to kill or control 90 percent): 6.9 g ae/ha | Mean Visual Injury (%)-21 Days After Application SEBEX (SEBEX (Sesbania exaltata, hemp sesbania), 4.38 g ae/ha): 100% | Mean Visual Injury (%)-21 Days After Application SEBEX (SEBEX (Sesbania exaltata, hemp sesbania), 8.75 g ae/ha): 100% | Mean Visual Injury (%)-21 Days After Application SEBEX (SEBEX (Sesbania exaltata, hemp sesbania), 17.5 g ae/ha): 100% | Mean Visual Injury (%)-21 Days After Application SEBEX (SEBEX (Sesbania exaltata, hemp sesbania), 35 g ae/ha): 100% | Mean Visual Injury (%)-21 Days After Application SEBEX (SEBEX (Sesbania exaltata, hemp sesbania), 70 g ae/ha): 100% | GR50 SEBEX (SEBEX (Sesbania exaltata, hemp sesbania), dose to kill or control 50 percent): <4.38 g ae/ha | GR90 SEBEX (SEBEX (Sesbania exaltata, hemp sesbania), dose to kill or control 90 percent): <4.38 g ae/ha
